# In ChEMBL document CHEMBL4706734, “Novel Hexahydropyrimidine Compounds for Treating Malaria” (ACS Med Chem Lett, 2021):
# Test system: Plasmodium falciparum
# Assay: Antimalarial activity against asexual blood stage of Plasmodium falciparum 3D7 infected in human erythrocytes assessed as inhibition of parasite growth and propagation incubated for 72 hrs by SYBR green dye based fluorescence assay
# Assay type: functional, organism-based
# Settings: 3D7, Erythrocyte
row,Compound,IC50
1,Cc1cc(Cl)cc(C(=O)Nc2cccc([C@]3(C)CC(=O)N([C@@H]4CCO[C@H](C)C4)C(=N)N3)c2Cl)c1,9 nM
2,C[C@@H]1C[C@H](N2C(=N)N[C@](C)(c3cccc(NC(=O)c4cccc(Cl)c4)c3Cl)CC2=O)CCO1,9 nM
3,C[C@@H]1C[C@H](N2C(=N)N[C@](C)(c3cccc(NC(=O)c4cc(Cl)cc(C#N)c4)c3Cl)CC2=O)CCO1,7 nM
4,C[C@@H]1C[C@H](N2C(=N)N[C@](C)(c3cccc(NC(=O)c4cccc(C#N)c4)c3Cl)CC2=O)CCO1,8 nM
5,C[C@@H]1C[C@H](N2C(=N)N[C@](C)(c3cccc(NC(=O)c4cccc(C#N)c4F)c3Cl)CC2=O)CCO1,6 nM
6,C[C@@H]1C[C@H](N2C(=N)N[C@](C)(c3cccc(NC(=O)c4cc(C#N)cn4C)c3Cl)CC2=O)CCO1,5 nM
